We go through 6 compounds from ChEMBL document CHEMBL2016437, “Synthesis and biological evaluation of novel small non-peptidic HIV-1 PIs: the benzothiophene ring as an effective moiety” (Bioorg Med Chem Lett, 2012).

Active and inactive are the calls of the source. No cut-off for these calls is given here.

In data set [1] the target is Protease (Human immunodeficiency virus 1, UniProt Q9YQ12). Nature of the data set: Inhibition of wild type HIV-1 protease assessed as hydrolysis of fluorogenic substrate Abz-Thr-Ile-Nle-Phe(NO2)-Gln-Arg after 10 mins by fluorescence assay.
Protease, sequence (Q9YQ12 whole entry): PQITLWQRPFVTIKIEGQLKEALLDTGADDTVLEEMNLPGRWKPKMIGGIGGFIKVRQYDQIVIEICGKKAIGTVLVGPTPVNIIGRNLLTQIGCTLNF
The nature of data set [2]: Cytotoxicity against human U937 cells after 1 to 4 hrs by MTS assay. The class given is cell-based, U-937. (Tetrazolium dyes change colour on reduction, which living cells bring about.)
For data set [3], the system named is Human immunodeficiency virus type 1 protease (Human immunodeficiency virus 1), Q72874 [V82A]. Kind of data set: Inhibition of HIV-1 protease V82A mutant assessed as hydrolysis of fluorogenic substrate Abz-Thr-Ile-Nle-Phe(NO2)-Gln-Arg after 10 mins by fluorescence assay.
The test system of data set [4] is Human immunodeficiency virus type 1 protease (Human immunodeficiency virus 1), Q72874 [V32I]. Nature of the data set: Inhibition of HIV-1 protease V32I mutant assessed as hydrolysis of fluorogenic substrate Abz-Thr-Ile-Nle-Phe(NO2)-Gln-Arg after 10 mins by fluorescence assay.

A word on the IC50: it is the concentration needed to halve the response being measured. Broadly, the CC50 is the concentration that lowers cell viability or growth by half. Take `COc1ccc(S(=O)(=O)N(CC(C)C)C[C@@H](O)COc2ccc3sccc3c2)cc1OC`: the IC50 in data set [1] was 0.06 µM. For the same compound, the CC50 in data set [2] was above 90 µM. In addition, the inhibition result in data set [3] and in data set [4] was “inactive” in each case.

Take `COc1ccc(S(=O)(=O)N(CC(C)C)C[C@@H](O)COc2ccc3[nH]ccc3c2)cc1OC`: in data set [1], the IC50 was 1 µM.

Consider `COc1ccc(S(=O)(=O)N(CC(C)C)C[C@@H](O)COc2ccc3c(ccn3C)c2)cc1OC`, for which the 50% inhibitory concentration (IC50) in data set [1] was above 1000 µM.

With `COc1ccc(S(=O)(=O)N(CC(C)C)C[C@@H](O)COc2ccc3c(ccn3Cc3ccccc3)c2)cc1OC`, the half-inhibitory concentration (IC50) in data set [1] was above 1000 µM.

For `Cc1c(O)cccc1C(=O)N[C@@H](CSc1ccccc1)[C@H](O)CN1C[C@H]2CCCC[C@H]2C[C@H]1C(=O)NC(C)(C)C` [NELFINAVIR], the IC50 in data set [1] was 0.009 µM.

Turning to `COc1ccc(S(=O)(=O)N(CC(C)C)C[C@@H](O)COc2ccc3occc3c2)cc1OC`, the IC50 in data set [1] was found to be 130 µM.
